Where a name gives a salt, the structure may show the parent alone.
system: amyloid β production in transfected H4 (human neuroglioma) cells stably expressing APP constructs; assay: In vitro cell-based assay of inhibitors of amyloid β production (ELISA); conditions: Homo sapiens, 16 h, transfected H4 cells expressing APP, approximately 16 hours incubation, amyloid β in medium by ELISA; read-out: ACTIVITY (IC50, inhibition of amyloid β production)
Method in brief: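 Test agents are screened at 10-100 μM for about 16 hours on cells stably expressing wild-type or variant APP. Secreted Aβ is measured by ELISA and compared with control-treated cells.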

IC50 [nM]	Molecule
≤ 25	CCCNC(=O)OC[C@@H](C)N(c1cc(Cl)ccc1CO)S(=O)(=O)c1ccc(Cl)cc1 [Example 1281]
> 500	COc1ccc(CNC(=O)[C@@H](C)N(c2cc(Cl)ccc2F)S(=O)(=O)c2ccc(Cl)cc2)cc1 [Example 1361]

same assay, conditions: Homo sapiens, 16 h, transfected H4 cells stably expressing APP; approx. 16 h incubation; amyloid β in medium by ELISA; read-out: ACTIVITY (IC50, inhibition of amyloid β production)

Molecule	IC50 [nM]
CCCC(C)N(Cc1ccccc1OCCCN1CCCCC1)S(=O)(=O)c1ccc(Cl)cc1 (stereo not drawn) [Example 781, 4-chloro-N-(1-methylbutyl)-N-{2-[3-(1-piperidinyl)propoxy]benzyl}benzenesulfonamide hydrochloride]	100 to 500
O=S(=O)(c1ccc(Cl)cc1)N(Cc1ccccc1OCCCN1CC=CCC1)c1ccccc1 [Example 749, 4-chloro-N-{2-[3-(3,6-dihydro-1(2H)-pyridinyl)propoxy]benzyl}-N-phenylbenzenesulfonamide hydrochloride]	100 to 500

same assay, conditions: Homo sapiens, 16 h, transfected H4 cells stably expressing APP; approximately 16 hours incubation; amyloid β in medium by ELISA; read-out: ACTIVITY (IC50, inhibition of amyloid β production)

IC50 [nM]	Molecule
> 500	CC(COc1ccccc1C(C)N(c1cc(F)ccc1F)S(=O)(=O)c1ccc(Cl)cc1)N(C)S(=O)(=O)c1ccc(Cl)cc1 (stereo not drawn) [Example 885, 4-chloro-N-[1-(2-{2-[[(4-chlorophenyl)sulfonyl](methyl)amino]propoxy}phenyl)ethyl]-N-(2,5-difluorophenyl)benzenesulfonamide]
> 500	CSc1cccc(N(Cc2ccccc2OCCCN2CCCCC2)S(=O)(=O)c2ccc(Cl)cc2)c1 [Example 952, 4-chloro-N-[3-(methylsulfanyl)phenyl]N-{2-[3-(1-piperidinyl)propoxy]benzyl}benzenesulfonamide hydrochloride]
> 500	O=S(=O)(c1ccc(Cl)cc1)N(Cc1cccnc1)Cc1ccccc1OCCCN1CCCCC1 [Example 945, 4-chloro-N-{2-[3-(1-piperidinyl)propoxy]benzyl}-N-(3-pyridinylmethyl)benzenesulfonamide hydrochloride]
> 500	O=S(=O)(c1ccc(Cl)cc1)N(Cc1ccccc1OCCCN1CCCCC1)C1Cc2ccccc2C1 [Example 1020, 4-chloro-N-(2,3-dihydro-1H-inden-2-yl)-N-{2-[3-(1-piperidinyl)propoxy]benzyl}benzenesulfonamide hydrochloride]
100 to 500	C[C@H](c1ccccc1Br)N(c1cc(F)ccc1F)S(=O)(=O)c1ccc(Cl)cc1 [Example 855, N-[(1R)-1-(2-bromophenyl)ethyl]-4-chloro-N-(2,5-difluorophenyl)benzenesulfonamide]
100 to 500	O=S(=O)(c1ccc(Cl)cc1)N(Cc1ccccc1OCCCN1CCCCC1)c1ccccc1Br [Example 866, N-(2-bromophenyl)-4-chloro-N-{2-[3-(1-piperidinyl)propoxy]benzyl}benzenesulfonamide hydrochloride]

Molecule	IC50 [nM]
O=S1(=O)c2cccc3cccc(c23)N1Cc1ccccc1OCCCN1CCCCC1 [Example 1024, 2-{2-[3-(1-piperidinyl)propoxy]benzyl}-2H-naphtho[1,8-cd]isothiazol 1,1-dioxide hydrochloride]	> 500

same assay, conditions: transfected H4 cells stably expressing APP constructs; approximately 16 hours incubation; amyloid β in medium by ELISA; read-out: ACTIVITY (IC50, inhibition of amyloid β production)

Molecule	IC50 [nM]
CC(C)SCCC[C@@H](C)N(c1cc(Cl)ccc1CO)S(=O)(=O)c1ccc(Cl)cc1 [Example 1223]	≤ 25
COC(=O)[C@@H](NC(=O)CC[C@@H](C)N(c1cc(Cl)ccc1F)S(=O)(=O)c1ccc(Cl)cc1)C(C)C [Example 1257, (R)-4-Chloro-N-(5-chloro-2-fluorophenyl)-N-[4-[N-(S)-[1-(methoxycarbonyl)-2-methylpropyl]amino]-1-methyl-4-oxobutyl]benzenesulfonamide]	50 to 100
CC[S+]([O-])CCC[C@@H](C)N(c1cc(Cl)ccc1F)S(=O)(=O)c1ccc(Cl)cc1 (stereo partly drawn) [Example 1160, 4-chloro-N-(5-chloro-2-fluorophenyl)-N-[1(R)-methyl-(4-ethylsulfinyl)butyl]benzenesulfonamide]	≤ 25
C[C@H](CCCS(C)(=O)=O)N(c1cc(Cl)ccc1Cl)S(=O)(=O)c1ccc(Cl)cc1 [Example 1162, 4-chloro-N-[2,5-dichlorophenyl]-N-[1(R)-methyl-(4-methylsulfonyl]butyl]benzenesulfonamide]	≤ 25

same assay, conditions: transfected H4 cells stably expressing APP; approx. 16 h incubation; amyloid β in medium by ELISA; read-out: ACTIVITY (IC50, inhibition of amyloid β production)

IC50 [nM]	Molecule
100 to 500	N-{3-[2-({[(4-chlorophenyl)sulfonyl]-2,5-difluoroanilino}methyl)phenoxy]propyl}-4-iodo-N-methylbenzamide [Example 765]
100 to 500	N-{3-[2-({[(4-chlorophenyl)sulfonyl]-2,5-difluoroanilino}methyl)phenoxy]propyl}-2,3-difluoro-N-methylbenzamide [Example 665]
100 to 500	N-{3-[2-(1-{[(4-chlorophenyl)sulfonyl]-2,5-difluoroanilino}ethyl)phenoxy]propyl}-N-methyl-4-(trifluoromethoxy)benzamide [Example 770]

Molecule	IC50 [nM]
CC(C)C[C@H](NC(=O)CCC[C@@H](C)N(c1cc(Cl)ccc1F)S(=O)(=O)c1ccc(Cl)cc1)C(=O)O [Example 546, (R)-4-Chloro-N-(5-chloro-2-fluorophenyl)-N-[5-[N-(S)-[1-(carboxy)-3-methylbutyl]amino]-1-methyl-5-oxopentyl]benzenesulfonamide]	100 to 500

same assay, conditions: transfected H4 cells stably expressing APP; approximately 16 hours incubation; amyloid β in medium by ELISA; Table B; read-out: ACTIVITY (IC50, inhibition of amyloid β production)

Molecule	IC50 [nM]
COC(=O)CSCCc1cc(F)ccc1[C@@H](C)N(c1cc(F)ccc1F)S(=O)(=O)c1ccc(Cl)cc1 [Example 477, Methyl ({2-[2-((1R)-1-[[(4-chlorophenyl)sulfonyl]-2,5-difluoroanilino}ethyl)-5-fluorophenyl]ethyl}sulfanyl)acetate]	100 to 500
2-[2-((1R)-1-{[(4-chlorophenyl)sulfonyl]-2,5-difluoroanilino}ethyl)-5-fluorophenyl]ethyl 2,5-difluorobenzylcarbamate [Example 358]	50 to 100
COC(=O)[C@H](CC(C)C)NC(=O)CC[C@@H](C)N(c1cc(Cl)ccc1F)S(=O)(=O)c1ccc(Cl)cc1 [Example 538]	100 to 500
O=S(=O)(c1ccc(Cl)cc1)N(Cc1ccccc1OCCC[N+]1([O-])CCCCC1)c1cc(Cl)ccc1Cl [Example 506]	100 to 500
O=C1CCN(CCCOc2ccccc2CN(c2ccccc2)S(=O)(=O)c2ccc(Cl)cc2)CC1 [Example 307, 4-Chloro-N-{2-[3-(4-oxo-1-piperidinyl)propoxy]benzyl}-N-phenylbenzenesulfonamide Hydrochloride]	50 to 100
O=S(=O)(c1ccc(Cl)cc1)N(Cc1ccccc1OCCC[N+]1([O-])CCCC1)c1cc(F)ccc1F [Example 507]	100 to 500
CC(c1ccccc1OCCCC(=O)O)N(c1cc(F)ccc1F)S(=O)(=O)c1ccc(Cl)cc1 (stereo not drawn) [Example 377, 4-[2-(1-{[(4-Chlorophenyl)sulfonyl]-2,5-difluoroanilino}ethyl)phenoxy]butanoic Acid]	50 to 100

same assay, conditions: transfected H4 cells stably expressing APP; approximately 16 hours incubation; amyloid β in medium by ELISA; read-out: ACTIVITY (IC50, inhibition of amyloid β production)

Molecule	IC50 [nM]
2-((1R)-1-{[(4-chlorophenyl)sulfonyl]-2,5-difluoroanilino}ethyl)-5-fluorobenzyl 2-(1-pyrrolidinyl)ethylcarbamate [Example 914]	> 500
C=C(C)CN(Cc1ccccc1OCCCN1CCCCC1)S(=O)(=O)c1ccc(Cl)cc1 [Example 955, 4-chloro-N-(2-methyl-2-propenyl)-N-{2-[3-(1-piperidinyl)propoxy]benzyl}benzenesulfonamide hydrochoride]	> 500

Other lines, results leading:

IC50 [nM]	Molecule
> 500	N-{4-[2-(1-{[(4-chlorophenyl)sulfonyl]-2,5-difluoroanilino}ethyl)phenoxy]butyl}-N-ethylcyclopropanecarboxamide [Example 959]
> 500	3-chloro-N-{3-[2-(1-{[(4-chlorophenyl)sulfonyl]-2,5-difluoroanilino}ethyl)phenoxy]propyl}benzamide [Example 900]

From patent US6967196B1, “Sulfonamide compounds and uses thereof” (Bristol-Myers Squibb Company, priority 1999, dated 2005)
